Drawing on patent US20260198495A1, “BINARY INSECTICIDE COMPOSITION AND USE THEREOF” (SHENYANG SINOCHEM AGROCHEMICALS R & D CO., LTD., priority 2022, published 2026), this text covers LC50 for 1 compound.

What all share (assay type): in vivo
Experiment [1] has as its system 3rd-instar larvae of Plutella xylostella. As to the kind of experiment: Joint toxicity of I-72 + metaflumizone, airbrush spraying, Example 4, Table 4. The conditions noted are these: Plutella xylostella, foliar, airbrush spraying of cabbage leaf disks, 72 h, A = compound I-72, B = metaflumizone, read-out: LC50. The protocol: Test target: 3rd-instar larvae of Plutella xylostella, a sensitive strain reared indoors.
Test conditions: temperature: 25-27° C., humidity: RH 60%, and illumination: L:D=14:10
Experimental method: the airbrush spraying method was adopted. The cabbage cultivated in the greenhouse was taken and made into leaf disks with a diameter of 3 cm. After uniform spraying treatment with an airbrush manual sprayer, the leaf disks were placed in a 9-cm Petri dish lined with filter paper. After natural air-drying in the shade, the standard test insects were introduced, and the number of dead and live insects was investigated 72 h later.
The preparation of the pesticide solution and the evaluation method (Sun Y-P) for the joint action type of the mixture were the same as those in Example 1.

Experiment [2] has as its system Bemisia tabaci (Gennadius) nymphs. As to the kind of experiment: Joint toxicity of I-72 + spiromesifen, Example 27, Table 27. The conditions noted are these: Bemisia tabaci; A = compound I-72, B = spiromesifen; cotton leaf-disk spraying; 96 hours; read-out: LC50. The protocol: Test target: Bemisia tabaci (Gennadius) nymphs, a sensitive strain reared indoors.
(§1) Preparation of the pesticide solution: according to different test requirements, the test samples were accurately weighed respectively with an electronic analytical balance. The technical pesticides were dissolved in acetone, and then diluted with 0.1% Tween 80 water into a series of pesticide solutions with a certain concentration gradient according to the experimental design dosage.
Experimental method: first, cotton leaves with neat and consistent Bemisia tabaci (Gennadius) nymphs were selected and made into leaf disks, with about 20 insects on each leaf disk. Then, they were evenly sprayed with the pesticide solution in the order from low dosage to high dosage according to the experimental design, with 1.5 mL for each leaf and 3 replicates for each treatment. In addition, a blank control was set up.
The treated test materials were placed in an observation room, and the temperature, humidity and illumination of the observation room could be adjusted as needed. The number of dead and live insects was investigated 96 hours later. […] Then, the co-toxicity coefficient of each ratio was calculated using the Sun Y-P method to evaluate the mixing effect (the same as in Example 1).

The test system of experiment [3] is Unaspis yanonensis Kuwana nymphs. As to the kind of experiment: whole plant or invertebrate. The conditions noted are these: foliar, A = compound I-72, B = spirotetramat, citrus leaf dipping, 120 hours, read-out: LC50. As for the experimental part: Test target: Unaspis yanonensis Kuwana nymphs.
as §1
Experimental method: the activity of the mixture against Unaspis yanonensis Kuwana nymphs on citrus was determined by adopting the dipping method. First, the collected citrus leaves with Unaspis yanonensis Kuwana nymphs were treated with the pesticide solution in the order from low dosage to high dosage according to the experimental design. After air-drying, the petioles were kept moist with degreased cotton, and then the leaves were placed in a Petri dish, with 3 replicates for each treatment. In addition, a blank control was set up.
The treated test materials were placed in an observation room, and the temperature, humidity and illumination of the observation room could be adjusted as needed. The number of dead and live insects was investigated 120 hours later.

The subject of experiment [4] is 2nd-instar larvae of Plutella xylostella. As to the kind of experiment: Joint toxicity of I-72 + spiropidion, Example 31, Table 31. The conditions noted are these: Plutella xylostella, foliar; A = compound I-72, B = spiropidion; cabbage leaf dipping; 72 hours; read-out: LC50. As for the experimental part:
Test target: 2nd-instar larvae of Plutella xylostella.
as §1
Experimental method: first, cabbage leaves were selected and dipped in the prepared pesticide solution for 10 s in the order from low dosage to high dosage according to the experimental design. After natural air-drying in the shade, they were placed in a 9-cm-diameter Petri dish with filter paper, and uniform and healthy test insects were introduced, with 10 insects for each treatment and 3 replicates for each treatment. In addition, a blank control was set up.
(§2) The treated test materials were placed in an observation room, and the temperature, humidity and illumination of the observation room could be adjusted as needed. The number of dead and live insects was investigated 72 hours later. […] Then, the co-toxicity coefficient of each ratio was calculated using the Sun Y-P method to evaluate the mixing effect (the same as in Example 1).

The test system of experiment [5] is 2nd-instar larvae of Chilo suppressalis (Walker). As to the kind of experiment: Joint toxicity of I-72 + azadirachtin, Example 36, Table 36. The conditions noted are these: A = compound I-72, B = azadirachtin, rice stalk spraying, 72 hours, chlorantraniliprole-resistant strain, read-out: LC50. The text has this: Test target: 2nd-instar larvae of Chilo suppressalis (Walker). The insect source was collected from Nanchang, Jiangxi Province, and it is the 11th generation continuously cultured indoors, with a relatively high resistance level to amide pesticides such as chlorantraniliprole.
Experimental method: the spraying method was adopted. Rice stalks with the same length and thickness were selected, cut into the same length, and evenly sprayed with the pesticide solution in the order from low dosage to high dosage according to the experimental design, with 1.5 mL of the pesticide solution for each treatment. The stalks were placed in a 6-cm-diameter Petri dish with filter paper. After natural air-drying in the shade, uniform and healthy test insects were introduced, with 10 insects for each treatment and 4 replicates for each treatment. In addition, a blank control was set up. The number of dead and live insects was investigated 72 hours later. The corrected mortality rate was calculated using the Abbott's formula, and the DPS data processing software was used for statistical analysis to calculate the toxicities (LC50 values) of the single test pesticides and the mixtures under the test ratios.
The test conditions, the preparation of the pesticide solution and the evaluation method were the same as those in Example 1.

Experiment [6] has as its system adult Phyllotreta vittuta Fabr. As to the kind of experiment: Joint toxicity of I-72 + deltamethrin, Example 45, Table 45. The conditions noted are these: A = compound I-72, B = deltamethrin; potted cabbage seedling spraying; 72 hours; read-out: LC50. As for the experimental part:
Test target: adult Phyllotreta vittuta Fabr.
as §1
Experimental method: first, uniform and consistent potted cabbage seedlings were selected. Then, uniform spraying was performed with the pesticide solution in the order from low dosage to high dosage according to the experimental design. After air-drying in the shade, adult flea beetles were transferred onto the treated cabbage seedlings, and then glass covers were put on them, with about 30-40 adult flea beetles on each seedling and 3 replicates for each treatment. In addition, a blank control was set up.
as §2

Experiment [7] concerns 2nd-instar larvae of Mythimna separata. Nature of the experiment: Joint toxicity of I-72 + hexaflumuron, Example 56, Table 56. The conditions noted are these: foliar, A = compound I-72, B = hexaflumuron, corn leaf dipping, 72 hours, read-out: LC50. As for the experimental part:
Test target: 2nd-instar larvae of Mythimna separata.
as §1
Experimental method: first, corn leaves were selected and dipped in the prepared pesticide solution for 10 s in the order from low dosage to high dosage according to the experimental design. After natural air-drying in the shade, they were placed in a 9-cm-diameter Petri dish with filter paper, and uniform and healthy test insects were introduced, with 10 insects for each treatment and 3 replicates for each treatment. In addition, a blank control was set up.
as §2

Converted amounts (≈) assume the structure as drawn.

The LC50 is the concentration that kills 50% of the test population. As for `CN(C(=O)c1ccc2c(c1)OC(F)(F)O2)c1cccc(C(=O)Nc2c(Br)cc(C(F)(C(F)(F)F)C(F)(F)F)cc2OC(F)F)c1F` [Compound I-72], the median lethal concentration (LC50) in experiment [1] turned out to be 0.0867 µg/mL; in experiment [2], 11.9 µg/mL; in experiment [3], 75.2 µg/mL (≈ 101 µM); in experiment [4], 0.0876 µg/mL; in experiment [5], 0.822 µg/mL; in experiment [6] it was 1.24 µg/mL. Also, the 50% lethal concentration (LC50) in experiment [7] is 0.0301 µg/mL.
